From patent US6566088B1, “Prolyl-4-hydroxylases” (Board of Regents, The University of Texas System, priority 2001, dated 2003)
Counter-ions that a name gives are not always drawn. Like-named read-outs stand apart in the source and are kept apart here.

Assays:
[1] = biological target: human HIF-1a ODD peptide (Homo sapiens, UniProt Q16665, M561A/M568A); assay: [35S]-pVHL pull-down prolyl hydroxylase assay with biotinylated HIF-1a ODD peptide; type: biochemical; details: enzyme in vitro transcribed/translated in rabbit reticulocyte lysate; ascorbate, 2-oxoglutarate, FeSO4 present
[2] = test system: prolyl-4-hydroxylase activity capable of modifying a proline-containing peptide derived from the ODD; details: cited from earlier work
[3] = biological target: T1, HPH 2 (Homo sapiens, UniProt Q9GZT9, DEL76-177); assay: Activity of purified recombinant HPH 2 on HIF-1a peptide substrate; type: biochemical; details: additive added (CoCl2 in excess)
T1 construct: MBP (N); made in house; host or cells: E. coli BL21-CodonPlus-RIL
T1 sequence (Q9GZT9 with tags, fused parts or gaps DEL76-177): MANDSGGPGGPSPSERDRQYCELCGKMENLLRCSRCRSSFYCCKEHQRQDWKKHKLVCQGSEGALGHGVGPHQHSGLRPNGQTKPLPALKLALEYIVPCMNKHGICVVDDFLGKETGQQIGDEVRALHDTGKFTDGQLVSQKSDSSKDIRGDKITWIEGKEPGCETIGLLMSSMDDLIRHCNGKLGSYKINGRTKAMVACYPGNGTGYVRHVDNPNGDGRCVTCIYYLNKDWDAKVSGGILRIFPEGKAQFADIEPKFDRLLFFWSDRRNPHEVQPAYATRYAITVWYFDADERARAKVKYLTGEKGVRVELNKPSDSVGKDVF

HPH 3: human HPH 1 paralog, Genbank BC001723
prolyl hydroxylase activity (pVHL association with the biotinylated peptide) [1]: catalyze the hydroxylation

CoCl2
prolyl-4-hydroxylase activity in extracts [2]: greatly diminished

O=S(=O)([O-])[O-].[Fe+2] [FeSO4]
effect on activity of the HPH 2 enzyme [3]: greatly stimulated

CC(=O)N(O)CCCCCNC(=O)CCC(=O)N(O)CCCCCNC(=O)CCC(=O)N(O)CCCCCN [deferoxamine mesylate]
prolyl-4-hydroxylase activity in extracts ([2]; extracts prepared in the presence of hypoxia mimics): greatly diminished
